From PMC9866191, “Novel 9-Benzylaminoacridine Derivatives as Dual Inhibitors of Phosphodiesterase 5 and Topoisomerase II for the Treatment of Colon Cancer” (Molecules, 2023)

How the values were obtained:
PDE5 = system: PDE5; design: method as in PMID 29656464; settings: Figure 1; cited from earlier work
CCD-966SK = assay: MTT cell proliferation assay, CCD-966SK; settings: CCD966SK skin fibroblast; 10 µM; 72 h MTT
Protocol: (§1) In the MTT assay, 96-well culture plates were used. A total of 7 × 10^4 cells per well were seeded, and test materials were added to the cells at various concentrations [47, 48]. Human cancer and non-cancer cell lines were purchased commercially from the American Type Culture Collection (ATCC). After 72 h, the cytotoxicity of the compounds and paclitaxel (as a positive control group) was detected using the MTT method (thiazolyl blue tetrazolium bromide, Sigma-M2128). Absorbance values at 570 and 620 nm (OD = OD570–OD620) were measured using an ELISA reader (Anthos Labtec Instruments, Salzburg, Austria).

HCT-116 = assay: MTT cell proliferation assay, HCT-116; settings: for % Inhibition at 10 µM: 72 h MTT, means ± SD
Protocol: as §1

PDE5A = target: T1, PDE5A (Homo sapiens, UniProt O76074); assay: Phosphodiesterase 5 HTRF cGMP assay; type: biochemical
T1 construct: purchased BPS Bioscience, San Diego, CA, USA
Protocol: All the synthesized acridine derivatives were tested for their in vitro ability to inhibit PDE5A at a screening dose of 10 µM.
The enzyme activities of phosphodiesterase 5 (PDE5) were measured using an HTRF cGMP assay kit (Cisbio, Codolet, France). […] Afterward, the HTRF reagent (cGMP-d2 and anti-cGMP-cryptate) was added for 1 h at 25 °C, and PDE activity was assayed on an HTRF reader (Tecan Infinite F200 Pro).

In the case of `c1ccc(CNc2ncnc3sc4c(c23)CCCCC4)cc1` [B], the IC50 (PDE5) is given as 0.19 µM.
For `c1ccc(CNc2ncnc3sc4c(c23)CCC4)cc1` [C], the IC50 (PDE5) is listed as 0.42 µM.
In the case of `c1csc(CNc2c3ccccc3nc3ccccc23)c1` [Compound 15, Acridin-9-yl-thiophen-2-ylmethyl-amine], the “% Inhibition at 10 µM” value (CCD-966SK) is reported as 11.54 ± 0.04%, the melting point is reported as 121 to 123 °C and the “% Inhibition at 10 µM” value (HCT-116) is reported as 39.65 ± 4.72%. It also gave an IC50 (PDE5A; means ± S.D. (n = 4), read-out: PDE5 IC50) of 6.43 ± 1.3 µM and an inhibition at 10 µM (PDE5A; read-out: PDE5 % Inhibition at 10 μM) of 58.4 ± 1.47%.
With `N.N.[Cl][Pt][Cl]` [cisplatin, reference compound] the “% Inhibition at 10 µM” value (CCD-966SK) was 38.73 ± 5.19%, the “% Inhibition at 10 µM” value (HCT-116) was 83.00 ± 0.38% and the IC50 (HCT-116; read-out: IC50 μM, 72 h MTT, means ± SD, three experiments) was 3.62 ± 0.19 µM.
